System: 519858-162-T-J1-PDC complex spheroid viability
Test: Anticancer human tumor 519858-162-T-J1-PDC patient-derived colon adenocarcinoma cell line growth inhibition [GQUAD]
Settings: for IC50: curve of first compound; for viability, T/C: stronger effect = lower value
Procedure, shortened: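 Multi-cell-type spheroids of tumor cells with HUVEC and mesenchymal stem cells, treated with drug combinations. Concentrations descend in half-log steps from near clinical Cmax, or from 10 microM where Cmax is unknown; viability read-out.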

[1] = second compound 0.0316 µM, first compound 0.0316 µM
[2] = second compound 0.0316 µM, first compound 0.316 µM
[3] = second compound 0.1 µM, first compound 0.0316 µM
[4] = second compound 0.1 µM, first compound 0.316 µM
[5] = second compound 0.316 µM, first compound 0.0316 µM
[6] = second compound 0.316 µM, first compound 0.316 µM
[7] = second compound 1 µM, first compound 0.0316 µM
[8] = second compound 1 µM, first compound 0.316 µM
[9] = second compound 3.16 µM, first compound 0.0316 µM
[10] = second compound 3.16 µM, first compound 0.316 µM
[11] = second compound 10 µM, first compound 0.0316 µM
[12] = second compound 10 µM, first compound 0.316 µM
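Further: spheroids exposed to compounds for 7 days.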
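Wherever viability, T/C is given: 100% = DMSO vehicle control viability.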

SMILES: C=CC(=O)N1CCN(c2nc(=O)n(-c3c(C)ccnc3C(C)C)c3nc(-c4c(O)cccc4F)c(F)cc23)C(C)C1 (centres undefined) + Cc1[nH]c2ccc(F)cc2c1-c1nc2c3cccnc3c3ncccc3c2[nH]1
- IC50 (second compound 0.0316 µM): > 10000 nM
- IC50 (second compound 0.1 µM): > 10000 nM
- IC50 (second compound 0.316 µM): > 10000 nM
- IC50 (second compound 1 µM): > 10000 nM
- IC50 (second compound 3.16 µM): > 10000 nM
- IC50 (second compound 10 µM): < 31.6 nM
- viability, T/C [1]: 80.3%
- viability, T/C (second compound 0.0316 µM, first compound 0.1 µM): 88.6%
- viability, T/C [2]: 65.3%
- viability, T/C (second compound 0.0316 µM, first compound 1 µM): 81.8%
- viability, T/C (second compound 0.0316 µM, first compound 3.16 µM): 90.9%
- viability, T/C (second compound 0.0316 µM, first compound 10 µM): 71.1%
- viability, T/C [3]: 130%
- viability, T/C (second compound 0.1 µM, first compound 0.1 µM): 96.3%
- viability, T/C [4]: 104%
- viability, T/C (second compound 0.1 µM, first compound 1 µM): 89.7%
- viability, T/C (second compound 0.1 µM, first compound 3.16 µM): 81.4%
- viability, T/C (second compound 0.1 µM, first compound 10 µM): 82.2%
- viability, T/C [5]: 76.3%
- viability, T/C (second compound 0.316 µM, first compound 0.1 µM): 95.4%
- viability, T/C [6]: 62.8%
- viability, T/C (second compound 0.316 µM, first compound 1 µM): 73%
- viability, T/C (second compound 0.316 µM, first compound 3.16 µM): 74.7%
- viability, T/C (second compound 0.316 µM, first compound 10 µM): 97.5%
- viability, T/C [7]: 97.3%
- viability, T/C (second compound 1 µM, first compound 0.1 µM): 75.4%
- viability, T/C [8]: 94.8%
- viability, T/C (second compound 1 µM, first compound 1 µM): 85.8%
- viability, T/C (second compound 1 µM, first compound 3.16 µM): 79.3%
- viability, T/C (second compound 1 µM, first compound 10 µM): 69.3%
- viability, T/C [9]: 59.6%
- viability, T/C (second compound 3.16 µM, first compound 0.1 µM): 73.6%
- viability, T/C [10]: 79.5%
- viability, T/C (second compound 3.16 µM, first compound 1 µM): 46.4%
- viability, T/C (second compound 3.16 µM, first compound 3.16 µM): 72.1%
- viability, T/C (second compound 3.16 µM, first compound 10 µM): 53.5%
- viability, T/C [11]: 39.9%
- viability, T/C (second compound 10 µM, first compound 0.1 µM): 44%
- viability, T/C [12]: 65.6%
- viability, T/C (second compound 10 µM, first compound 1 µM): 62.8%
- viability, T/C (second compound 10 µM, first compound 3.16 µM): 52.5%
- viability, T/C (second compound 10 µM, first compound 10 µM): 80.4%

SMILES: CC[C@@]1(O)C(=O)OCc2c1cc1n(c2=O)Cc2cc3c(CN(C)C)c(O)ccc3nc2-1 + Cc1[nH]c2ccc(F)cc2c1-c1nc2c3cccnc3c3ncccc3c2[nH]1
- IC50 (second compound 0.0316 µM): > 316 nM
- IC50 (second compound 0.1 µM): > 316 nM
- IC50 (second compound 0.316 µM): > 316 nM
- IC50 (second compound 1 µM): > 316 nM
- IC50 (second compound 3.16 µM): 0.999 nM
- IC50 (second compound 10 µM): > 316 nM
- viability, T/C (second compound 0.0316 µM, first compound 0.000999 µM): 119%
- viability, T/C (second compound 0.0316 µM, first compound 0.00316 µM): 106%
- viability, T/C (second compound 0.0316 µM, first compound 0.00999 µM): 103%
- viability, T/C [1]: 76.5%
- viability, T/C (second compound 0.0316 µM, first compound 0.0999 µM): 72.1%
- viability, T/C [2]: 88.9%
- viability, T/C (second compound 0.1 µM, first compound 0.000999 µM): 86%
- viability, T/C (second compound 0.1 µM, first compound 0.00316 µM): 90.9%
- viability, T/C (second compound 0.1 µM, first compound 0.00999 µM): 94.3%
- viability, T/C [3]: 88.9%
- viability, T/C (second compound 0.1 µM, first compound 0.0999 µM): 73.2%
- viability, T/C [4]: 75.5%
- viability, T/C (second compound 0.316 µM, first compound 0.000999 µM): 58.7%
- viability, T/C (second compound 0.316 µM, first compound 0.00316 µM): 97.1%
- viability, T/C (second compound 0.316 µM, first compound 0.00999 µM): 99.3%
- viability, T/C [5]: 93.8%
- viability, T/C (second compound 0.316 µM, first compound 0.0999 µM): 97.2%
- viability, T/C [6]: 69.4%
- viability, T/C (second compound 1 µM, first compound 0.000999 µM): 86%
- viability, T/C (second compound 1 µM, first compound 0.00316 µM): 60.9%
- viability, T/C (second compound 1 µM, first compound 0.00999 µM): 85.1%
- viability, T/C [7]: 104%
- viability, T/C (second compound 1 µM, first compound 0.0999 µM): 69.7%
- viability, T/C [8]: 75.9%
- viability, T/C (second compound 3.16 µM, first compound 0.000999 µM): 56.4%
- viability, T/C (second compound 3.16 µM, first compound 0.00316 µM): 55.6%
- viability, T/C (second compound 3.16 µM, first compound 0.00999 µM): 46.5%
- viability, T/C [9]: 48.6%
- viability, T/C (second compound 3.16 µM, first compound 0.0999 µM): 78.1%
- viability, T/C [10]: 77.1%
- viability, T/C (second compound 10 µM, first compound 0.000999 µM): 60%
- viability, T/C (second compound 10 µM, first compound 0.00316 µM): 58.3%
- viability, T/C (second compound 10 µM, first compound 0.00999 µM): 50.7%
- viability, T/C [11]: 60.9%
- viability, T/C (second compound 10 µM, first compound 0.0999 µM): 85.3%
- viability, T/C [12]: 60%

Reference: PubChem BioAssay AID2060507 (Molecular Pharmacology Branch, DTP, NCI, 2025)
